Here are results for four substances from patent US6492137B1, “Response element compositions and assays employing same” (The Salk Institute for Biological Studies, priority 1989, dated 2002).

For one series, the system named is endogenous RA receptor. The series can be described thus: Delta-MTV-CAT constructs, RA induction in CV-1 cells without cotransfected RAR expression vector. It counts as cell-based, monkey. As for the experimental part: (§1) Cells were transfected in 10 cm dishes with 10 μg of DNA containing 5 μg of reporter plasmid, 1-2 μg of either RSV-LUC (a), or RSV-βGAL or pCH110 (c and d), pGEM4 as carrier DNA, and for the experiments shown in a and d, 1 μg of RSV-RAR expression vector or the same amount of an RSV vector generating a nonsense transcript. Cells were harvested 1 day after addition of retinoic acid. All CAT assays represent equivalent amounts of β-galactosidase activity; β-GAL assays were normalized to luciferase activity.

In series [1] the target is T1, RAR (Homo sapiens, UniProt P10276).
T1 construct: expressed in transfected cells; host or cells: CV-1 (monkey kidney)
T1 sequence (P10276 1-462): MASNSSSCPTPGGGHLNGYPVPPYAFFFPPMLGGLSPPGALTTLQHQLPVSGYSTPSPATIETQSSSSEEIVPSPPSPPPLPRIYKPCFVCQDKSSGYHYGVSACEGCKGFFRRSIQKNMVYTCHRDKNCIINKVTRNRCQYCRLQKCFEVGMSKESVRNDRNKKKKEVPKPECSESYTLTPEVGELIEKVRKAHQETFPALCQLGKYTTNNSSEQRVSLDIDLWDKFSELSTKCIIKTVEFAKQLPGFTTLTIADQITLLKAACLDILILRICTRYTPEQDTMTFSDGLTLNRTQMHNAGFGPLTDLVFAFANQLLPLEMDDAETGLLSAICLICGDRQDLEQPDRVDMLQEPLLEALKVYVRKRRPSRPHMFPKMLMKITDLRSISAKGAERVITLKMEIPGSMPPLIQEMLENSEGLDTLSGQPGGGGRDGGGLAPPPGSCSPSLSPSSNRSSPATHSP
The series can be described thus: Delta-MTV constructs, RA induction in CV-1 cells with cotransfected RAR expression vector. The format is cell-based. Conditions: Delta-MTV-CAT constructs; CV-1 cells. The protocol: (§2) Inspection of the sequences of βRE1, βRE2, and βRE3 (see FIG. 2b) identifies a tandem repeat of the 6 bp motif. The center to center separation of 11 bp between these repeats is one turn of the DNA helix. […] Apparently, a single half site element of the RARβ gene would reciprocally be responsive to the TR, ER, and/or other members of the receptor superfamily.
as §1

The target of another series is T2, RARα (Homo sapiens, UniProt P10276).
T2 sequence (P10276 1-462): T1 sequence (P10276 1-462)
In words: ΔSV-CAT reporter cotransfection assay in CV-1 cells with RARα expression plasmid, ±RA. The format is cell-based. Details: expressed in transfected cells; host or cells: CV-1 (monkey kidney). Conditions: RA 1 μM. From the text:
Receptor expression plasmids used in the following cotransfection assays have been described previously (pRShTRβ [see Thompson, et al., Proc. Natl. Acad. Sci. U.S.A. 86: 3494-3498 (1989)]; pRShRARα [see Giguere, et al., Nature 330: 624-629 (1987)]; pRShRARβ and pRshRARγ [see Ishikawa, et al., Mol. Endocrinol, 4: 837-844 (1990)]; and pRShVDR, [Schule, et al., Cell 61: 497-504 (1990)]. A basal reporter plasmid ΔSV-CAT was constructed by replacing the TK promoter in TK-CAT [Damm, et al., Nature 339: 593-597 (1989)] with the SphI-HindIII fragment of the SV40 early promoter. All of the recombinant CAT reporter plasmids used herein harbor a single copy of the indicated oligonucleotides at the unique HindIII site upstream of the SV40 promoter. Identity of the inserted oligonucleotides was confirmed by sequencing. To improve production of receptor proteins in COS cells, a new eukaryotic expression vector pCMX was prepared by modifying the plasmid CDM8 [Seed, B., Nature 329: 840-842 (1987)]. The CDM8 was cut with MluI and StuI in order to release the DNA fragment encoding the CMV/T7 promoter, SV40 small t intron/poly A signal, polyoma virus enhancer/origin, and SV40 enhancer/origin. The resulting fragment was ligated to a larger fragment of PvuII-digested PUC19. An internal deletion was introduced between unique BamHI and BclI sites present in the DCM8 portion. The stuffer sequence flanked by XbaI sites was replaced with a synthetic polylinker coding for 5′-KpnI/Asp718-EcoRV-BamHI -MscI-NheI-3′, followed by a stretch of 5′-[…]-3′ (SEQ ID NO:48) which can function as a universal termination signal for protein translation. The coding sequence of the luciferase [de Wet, et al., Mol. Cell. Biol. 7: 725-737 (1987)] and human TRβ, RARα, and VDR was placed in the polylinker region of the pCMX, generating pCMX-LUC, Pcmx-Htrβ, pCMX-hRARα, and pCMX-hVDR, respectively. The translation start site of the RARα was modified to […] by attaching the synthetic linker encoding a consensus translation start signal [Hollenberg, et al., Cell 55: 899-906 (1988)]. […]

Another series concerns the target T3, TRβ (Homo sapiens, UniProt P10828).
T3 sequence (P10828 1-461): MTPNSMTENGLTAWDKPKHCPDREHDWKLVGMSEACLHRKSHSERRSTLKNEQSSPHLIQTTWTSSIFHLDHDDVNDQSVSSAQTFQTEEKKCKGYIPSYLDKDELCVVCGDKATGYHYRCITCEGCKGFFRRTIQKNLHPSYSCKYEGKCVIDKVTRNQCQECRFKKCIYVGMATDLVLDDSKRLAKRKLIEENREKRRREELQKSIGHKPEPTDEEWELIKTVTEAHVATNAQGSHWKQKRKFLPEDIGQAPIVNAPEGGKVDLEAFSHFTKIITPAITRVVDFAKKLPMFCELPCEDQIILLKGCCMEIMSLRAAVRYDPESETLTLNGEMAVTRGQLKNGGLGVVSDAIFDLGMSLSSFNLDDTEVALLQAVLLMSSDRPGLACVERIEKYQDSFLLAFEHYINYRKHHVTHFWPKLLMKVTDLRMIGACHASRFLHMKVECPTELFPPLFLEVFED
The series can be described thus: Gel retardation DNA-binding assay with TRβ-expressing COS cell extracts. Set-up: expressed in transfected cells; host or cells: COS cells (whole-cell extract). Particulars: gel retardation; TRβ COS cell extract. The protocol: For DNA binding assays, COS cells were cultured in DMEM with 10% calf bovine serum and transfected by the calcium phosphate method with 20 μg of the pCMX receptor expression plasmid for 6 hours followed by a glycerol shock. After incubating the transfected COS cells for another 48 hours, the cells were harvested to prepare extracts for the DNA binding assay, carried out as described by Damm et al., Nature 339: 593-597 (1989). The extracts were made in 20 mM HEPES (pH 7.4), 0.4 M KCl, 2 mM DTT and 20% glycerol. A similar method was employed to prepare a whole cell extract from F9 stem cells. For the binding, 5 μg (COS) or 10 μg (F9) of proteins was incubated on ice for 20 minutes, first in 20 mM HEPES, 80 mM KCl, 1 mM DTT, 0.1% NP40, 2.5 μg of poly dI/dC, and 10% glycerol (cold competitor oligonucleotides, when included, were added during this pre-incubation period). Then 40 fmole of ^32P-labeled oligonucleotide probe (1-2×10^5 cpm, prepared by filling-in reaction using Klenow polymerase in the presence of α-^32P-dCTP) was added to the reaction mixture, followed by incubation at room temperature for 30 minutes. The receptor-DNA complexes were resolved by electrophoresis through 5% polyacrylamide gel containing 5% glycerol at 6 V/cm at room temperature.
Oligonucleotides listed in FIG. 3 were used as a probe to test specific DNA-binding of the RARα and TRβ in a gel retardation assay.
Using the mobility shift assay, the DNA-binding capacity of extracts from COS cells expressing TRβ and RARα to these sequences was also tested.

Series [2] has as its system RAR. The series can be described thus: Delta-MTV constructs, RA induction in CV-1 cells with cotransfected RAR expression vector. The format is cell-based. Conditions: Delta-MTV promoter; with vs without RAR expression vectors. As for the experimental part: as §2, §1

As for “5′-AAGCTTAAG-GGTTCA-CCGAA-AGTTCA-CTCAGCTT-3′ (SEQ ID NO:7) (AAGCTTAAGGGTTCACCGAAAGTTCACTCAGCTT; listed as DNA, chemistry not given here) [βRE3, oligonucleotide including the β retinoic acid response element]”, the “RA-dependent induction in the absence of cotransfected RAR expression vector” value in the series with endogenous RA receptor is “robust RA-dependent induction”. In addition, in the series with RAR [1], the “increase of induction by cotransfection of RAR-alpha expression vector” value was “two-fold”.

Take “DR-4: perfect tandem repeat of AGGTCA hexamers separated by 4 nucleotides (SEQ ID NO:27) (AGCTTCAGGTCACAGGAGGTCAGAGAGCT; DNA, backbone not given here; double-stranded DNA response element with agct overhangs, cloned into reporter)”: the “RA response (in words)” value with RARα was “clear activity”. For the same substance, the “TRβ binding to labeled oligonucleotide probe” value in the series with TRβ is listed as “specific protein-DNA complex”.

As for “βRE4: construct containing a single copy of either the 5′- or 3′- half site (SEQ ID NO:8) (AAGCTTCGAAAGTTCACTCGCATAGCTT; listed as DNA, chemistry not given here)”, in the series on RAR [2], the “function of single half-site constructs” value is recorded as “functional only upon cotransfection of RAR expression vectors”.

Regarding “βRE5: construct containing a single copy of either the 5′- or 3′- half site (SEQ ID NO:9) (AAGCTTAAGGGTTCACCGAGCTT; listed as DNA, chemistry not given here)”, the “function of single half-site constructs” value in the series on RAR [2] was “functional only upon cotransfection of RAR expression vectors”.
